Measurements taken from ChEMBL document CHEMBL1139741, “Synthesis of 1,2,4-trioxepanes via application of thiol-olefin co-oxygenation methodology” (Bioorg Med Chem Lett, 2006).

What follows are molecules tested on Plasmodium falciparum (assay: Antimalarial activity against Plasmodium falciparum 3D7).
Assay type: functional, organism-based

`CC1(CS(=O)(=O)c2ccc(Cl)cc2)COC2(CCCCC2)OO1` (stereo not drawn) and `CC1(CS(=O)(=O)c2ccc(Cl)cc2)COC2(CCCC2)OO1` (stereo not drawn) are within 1.5-fold of each other in IC50: 137 nM for the first, 99.8 nM for the second.

Compared with `CC1(CSc2ccc(Cl)cc2)COC2(CCCC2)OO1` (stereo not drawn), `CC1(CS(=O)(=O)c2ccc(Cl)cc2)CCOC2(CCCC2)OO1` (stereo not drawn) is higher in IC50: 110 nM for the first, greater than 1000 nM for the second. The first is the more potent here.

First: CC1(CS(=O)(=O)c2ccc(Cl)cc2)COC(=C2C3CC4CC(C3)CC2C4)OO1 (stereo not drawn)
Second: CC1(CS(=O)(=O)c2ccc(Cl)cc2)CCOC(=C2C3CC4CC(C3)CC2C4)OO1 (stereo not drawn)
The IC50 of the first is lower: 189 nM for the first, greater than 1000 nM for the second.

`CC1(CS(=O)(=O)c2ccc(Cl)cc2)CCOC2(CCCCC2)OO1` (stereo not drawn) and `COC(=O)/C=C/C1(C)CCOC(=C2C3CC4CC(C3)CC2C4)OO1` (stereo not drawn) cannot be ordered by IC50: greater than 1000 nM for the first, greater than 1000 nM for the second.
